# Results published in US9527803B2, “Crystal form VII of agomelatine, preparation method and use thereof and pharmaceutical composition containing same” (LES LABORATOIRES SERVIER, priority 2011, dated 2016).
# Read-outs that look alike come from different tables or passages of the source.
# Columns and labels:
# Type in all cases: physicochemical
# [1] = Storage stability of crystalline forms at 40° C. for 20 days, purity and content by HPLC; details: for Content: external standard method; for Purity: internal standard method
# Procedure: Crystalline forms II, III, VI and VII (obtained through embodiment 3) are each placed in thermostatic containers at a temperature of 40° C. and stored for 20 days, with the stability of these crystalline samples being studied using the method of High Performance Liquid Chromatography.
# 1. Purity Measurement of the Sample
# Chromatographic conditions: Octadecyl silane chemically bonded silica is used as packing; a mixed solution of 10 mmol/L phosphate buffer (adjusted to pH 7.0 with sodium hydroxide) and acetonitrile in the ratio 2:7 by volume acts as the mobile phase; column temperature 40° C.; and detection wavelength 220 nm. Purity is measured using an internal standard method.
# In the mobile phase, crystalline forms II, III, VI and VII are distributed into 1 mg/mL solutions, 10 μL of each of which are then passed into a liquid chromatograph, with their chromatograms being recorded.
# The reference sample purity measurement method was used, with measurements being made using an external standard method, the results are shown in Table I.
# [2] = Measurement of water solubility (HPLC, external standard method)
# From the text: 3. Measurement of Water Solubility
# The HPLC method was used to determine water solubility, with measurements being made using an external standard method.
# [3] = Determination of crystalline stability (pharmacopoeia stability assessment method); design: key: ✓: stable; x: unstable; details: for Crystalline stability, influencing factor: high temperature / Crystalline stability, influencing factor: high humidity / Crystalline stability, influencing factor: illumination: exposed for 10 days; for Crystalline stability, influencing factor: high temperature: 60° C.; for Crystalline stability, influencing factor: high humidity: 92.5% RH; for Crystalline stability, influencing factor: high humidity / Crystalline stability, long term testing (6 months) / Crystalline stability, long term testing (9 months) / Crystalline stability, long term testing (12 months): 25° C.; for Crystalline stability, influencing factor: illumination: 4500 lx; for Crystalline stability, accelerated testing: hermetically sealed for 6 months, 40° C., 75% RH; for Crystalline stability, long term testing (6 months) / Crystalline stability, long term testing (9 months) / Crystalline stability, long term testing (12 months): hermetically sealed, 60% RH
# Procedure: 4. Determination of Crystalline Stability
# Measured using the pharmacopoeia stability assessment method: • 1) Influencing factor testing (exposed for 10 days): high temperature (60° C.), illumination (4500 lx), high humidity (92.5% RH, 25° C.) • 2) Accelerated testing (hermetically sealed for 6 months): temperature 40° C., humidity 75% RH • 3) Long term testing (hermetically sealed for 12 months): temperature 25° C., humidity 60% RH
# [4] = After storage in thermostatically controlled containers at 40° C. for 20 days
"Content [1, 4]","Purity [1, 4]",Content ([1]; Before storage),Purity ([1]; Before storage),solubility [2],"Crystalline stability, influencing factor: high temperature [3]","Crystalline stability, influencing factor: high humidity [3]","Crystalline stability, influencing factor: illumination [3]","Crystalline stability, accelerated testing [3]","Crystalline stability, long term testing (6 months) [3]","Crystalline stability, long term testing (9 months) [3]","Crystalline stability, long term testing (12 months) [3]",solubility ([2]; read-out: Solubility),SMILES
99.6%,99.3%,99.5%,99.7%,301 µg/mL,✓*,✓,✓,✓,✓,✓,✓,,"COc1ccc2cccc(CCNC(C)=O)c2c1 [Crystalline form II, N-[2-(7-methoxy-1-naphthyl)ethyl]acetamide]"
99.6%,99.7%,99.8%,99.8%,,✓,✓,✓,✓,✓,✓,✓,330 µg/mL,"COc1ccc2cccc(CCNC(C)=O)c2c1 [Crystalline form VII, N-[2-(7-methoxy-1-naphthyl)ethyl]acetamide]"
99.1%,99.6%,99.3%,99.7%,,x*,✓,✓,✓,✓,✓,x,,"COc1ccc2cccc(CCNC(C)=O)c2c1 [Crystalline form VI, N-[2-(7-methoxy-1-naphthyl)ethyl]acetamide]"
99.4%,99.3%,99.5%,99.9%,,,,,,,,,,"COc1ccc2cccc(CCNC(C)=O)c2c1 [Crystalline form III, N-[2-(7-methoxy-1-naphthyl)ethyl]acetamide]"
